One data set deals with Mongrel dogs. The data set is described as follows: survival on the 7th day after adrenalin infusion. In kind it is in vivo. The following applies: for number of animals that survived on the 7th day after adrenalin infusion: oral, twice a day, 4 days, control 2/5; for survival time, in words: adrenalin infusion, dogs. The protocol: (§1) This investigation concerned myocardial necrosis induced in animals under severe stress conditions which may be reproduced by infusion of adrenalin.
(§2) Mongrel dogs of either sex, weighing about 10 kg, were distributed into groups of 5 animals each: except for one group of untreated dogs (controls, Group 1), the other groups were orally administered the test material, twice a day, for 4 days, repsectively:
(§3) Eighteen hours after the last treatment the dogs were anesthetized with phenobarbital (25 mg/kg, i.v.); a catheter was placed in the femoral artery, the blood pressure was recorded via a STAHAM P 23 GD sensor and the ECG was recorded (D1 and D2) with a RACIA polygraph. The adrenalin was infused by the cephalic route at a dosage of 4 μg/kg/mn at a rate of 2 ml/mn for 4 hours.
(§4) The animals were freed from the catheters and were allowed to wake up. The animals which survived 7 days later were sacrificed and autopsied; the hearts were cut out and examined macroscopically prior to taking samples for histological examination. Any macroscopic anomalies are rated according to the following code (Table II) which was established arbitrarily and which takes into account the extent of the damages (p.9).
The number of animals that survived on the 7th day after adrenalin infusion is reported below: […]

Data set [1] relates to platelet aggregation (collagen). The note with it: Packham et al 1967; cited from earlier work.
The subject of data set [2] is blood platelets (collagen-induced aggregation). The data set can be described thus: collagen-induced blood-platelet aggregation after oral treatment. It is filed as in vivo, Wistar rats. The following applies: Rattus norvegicus, read-out: Percent Inhibition, Collagen. The method, then:
Blood was taken from the jugular vein of Wistar rats. […] 0.4 ml plasma is placed in a siliconized tube provided with a magnet bar which is also siliconized. The tube is introduced into an aggregometer coupled with an apparatus which records the optical density variations. […] Blood-platelet-aggregation produces then an increase of light transmission followed by a decrease subsequent to the deaggregation phase. The maximum optical density variation thus determined characterizes the intensity of the aggregation. (b) Determination of collagen-induced blood-platelet-aggregation The A.D.P. solution is substituted with a collagen solution (bovine tendon extract).

A further data set relates to platelet. The following applies: in man; Goodman and Gilman 1975; cited from earlier work.
The test system of another data set is blood platelets. The data set can be described thus: blood-platelet count before and after adrenalin infusion. In kind it is in vivo, Mongrel dogs. The following applies: for Blood-platelet count, change prior to and after adrenalin infusion: oral, twice a day, 4 days, controls 32.4% decrease; for number of blood-platelets, in words: adrenalin infusion, dogs. The method, then: as §1, §2, §3
Arterial blood samples were taken before and after the end of the infusion, to effect the blood-platelet counts.

A further data set has as its system myocardial necrosis. The data set can be described thus: adrenalin-induced myocardial necrosis, macroscopic lesions. In kind it is in vivo, Mongrel dogs. The following applies: for Macroscopic Lesions, necrosis score: oral, twice a day, 4 days, control 18.0; for necrosis / macroscopic lesions, in words: adrenalin infusion, dogs, vs controls. The protocol: as §1, §3, §4

The nature of data set [3]: acute toxicity, LD50, mice. The following applies: mouse, in vivo.
Data set [4] is described as follows: acute toxicity, LD50, rabbits. The note with it: rabbit, in vivo, iv, Miller & Tainter method, read-out: LD50 /24 hrs/kg body weight. The source says:
The tests carried out concerned:

Data set [5] is described as follows: acute toxicity, LD50, rats. The note with it: rat, in vivo.
Data set [6] relates to platelet aggregation (antigen-antibody complexes). The note with it: Packham et al 1967; cited from earlier work.
In data set [7] the test system is blood platelets (A.D.P. induced aggregation). The data set can be described thus: A.D.P. induced blood-platelet aggregation after oral treatment. It is filed as in vivo, Wistar rats. The note with it: Rattus norvegicus, read-out: Percent Inhibition, A.D.P. The method, then: Blood was taken from the jugular vein of Wistar rats. […] (a) Determination of A.D.P. induced blood-platelet aggregation 0.4 ml plasma is placed in a siliconized tube provided with a magnet bar which is also siliconized. The tube is introduced into an aggregometer coupled with an apparatus which records the optical density variations. When light transmission has reached a stable value, 0.5 ml of a solution containing 10μ M A.D.P. (adenosine-di-phosphate) is added to the tube. Blood-platelet-aggregation produces then an increase of light transmission followed by a decrease subsequent to the deaggregation phase. The maximum optical density variation thus determined characterizes the intensity of the aggregation.

Setting [8] is: Group 4: 20 mg/kg sulfinpyrazone.
[9] abbreviates: Group 5: 40 mg/kg sulfinpyrazone.
Where [10] appears, read: Group 4: 10 mg/kg sulfinpyrazone, oral, 3 hours after treatment, vs control.
[11] abbreviates: Group 5: 20 mg/kg sulfinpyrazone, oral, 3 hours after treatment, vs control.
[12] abbreviates: Group 2: 50 mg/kg ticlopidine hydrochloride.
Where [13] appears, read: Group 3: 100 mg/kg ticlopidine hydrochloride.

“Also recorded” adds a separate entry of the source. Counter-ions that a name gives are not always drawn.

As a reminder, the inhibition is how much of the control response was suppressed. As for `O=C1C(CC[S+]([O-])c2ccccc2)C(=O)N(c2ccccc2)N1c1ccccc1` (stereo not shown) [sulfinpyrazone, 1,2-diphenyl-(2'-phenylsulfinyl-ethyl)pyrazolidine-3,5-dione], the “number of animals that survived on the 7th day after adrenalin infusion” value in the data set on Mongrel dogs (setting [8]) and in the data set on Mongrel dogs (setting [9]) was 2/5 throughout. Moreover, in the data set on Mongrel dogs, the “survival time, in words” value is “no effect”. For the same compound, the “platelet aggregation in response to collagen” value in data set [1] was “blocks platelet aggregation”. In addition, the inhibition at 10 mg/kg in [2] (setting [10]) is 12.7%; in data set [7] (setting [10]), 8.7%. In addition, the inhibition at 20 mg/kg turned out to be 20.5% in data set [2] (setting [11]) and 14.1% in data set [7] (setting [11]). In the data set on platelet, the platelet survival result is “prolongs platelet survival”. Further, the “Blood-platelet count, change prior to and after adrenalin infusion” value was -12% with blood platelets (setting [8]) and -7% in the data set with blood platelets (setting [9]). In addition, the “number of blood-platelets, in words” value with blood platelets is listed as “no effect”. Further, the entries for the “Macroscopic Lesions, necrosis score” value in the data set with myocardial necrosis (setting [8]) and in the data set on myocardial necrosis (setting [9]) were 18.2 and 17.4, respectively. Also, in the data set with myocardial necrosis, the “necrosis / macroscopic lesions, in words” value is “substantially identical with those of the controls; also recorded: no effect”. Further, the LD50 at 24 h in data set [3] (iv) worked out at 240 mg/kg; in data set [3] (po), 298 mg/kg; in [4], 195 mg/kg; in [5] (iv), 154 mg/kg; in data set [5] (po) it was 375 mg/kg. Besides, in data set [6], the “platelet aggregation in response to antigen-antibody complexes” value was “blocks platelet aggregation”.

As to `Clc1ccccc1CN1CCc2sccc2C1` [ticlopidine hydrochloride, 5-(2-chloro-benzyl)-4,5,6,7-tetrahydro-thieno[3,2-c]pyridine], the “number of animals that survived on the 7th day after adrenalin infusion” value with Mongrel dogs (setting [12]) is reported as 3/5; in the data set on Mongrel dogs (setting [13]), 4/5. The “survival time, in words” value in the data set on Mongrel dogs is “improves the survival time”. In addition, the inhibition at 25 mg/kg in data set [2] (po, 3 h) worked out at 48.6%; in [7] (po, 3 h), 28.5%. The inhibition at 50 mg/kg is 58.3% in [2] (po, 3 h) and 40.6% in data set [7] (po, 3 h). The “Blood-platelet count, change prior to and after adrenalin infusion” value is given as “+14%” in the data set on blood platelets (setting [12]) and “+13.2%” in the data set with blood platelets (setting [13]). The “number of blood-platelets, in words” value in the data set with blood platelets is on record as “increases the number of blood-platelets”. Moreover, the entries for the “Macroscopic Lesions, necrosis score” value in the data set with myocardial necrosis (setting [12]) and with myocardial necrosis (setting [13]) were 6.8 and 4.8, respectively. Further, in the data set on myocardial necrosis, the “necrosis / macroscopic lesions, in words” value was “significant protection against myocardia necrosis”.

These data come from patent publication US4537894A, “Methods of using compositions having antithrombotic and anti-blood-platelet-aggregating activity” (priority 1978, dated 1985).
